Article PMC4893617 (Scientific Reports, 2016)
Structures can show the parent of a compound that is named as a salt.

How the values were obtained:
[1] = target: T1, ChuaMOX (mandelonitrile oxidase) (Chamberlinius hualienensis, UniProt A0A173MZJ8); type: biochemical
T1 construct: native enzyme purified from millipede bodies without guts; ORF 593 residues incl; 17-residue signal peptide; predicted mature 62,818 Da; 67 kDa SDS-PAGE, 65 kDa gel filtration; monomeric, glycosylated, FAD

[2] = target: T1, ChuaMOX (mandelonitrile oxidase); experiment: biochemical; parameters: Oxidase activity of purified native ChuaMOX, ABTS read-out, pH 5, compound added at 1 mM; details: for remaining activity at 1000 µM: read-out: % of control remaining
Experimental: Enzymatic activity decreased in conditions approaching neutral pH, and it was lowest at a pH of 7 (Fig. 1c). After one hour of incubation at 25 °C, 80% of the ChuaMOX activity remained over a range of pH values between 3 and 10 (Fig. 1d). […] After one hour of incubation at pH 8, 80% of the activity remained between 25 °C and 50 °C, and all activity was lost at 70 °C (Fig. 1f). […] (Table 1). The enzyme required [compound left out] as a substrate rather than [compound left out] (see Supplementary Table S3). […] The chemicals (see Supplementary Table S5) were purchased from various suppliers (Sigma-Aldrich, Dojindo, Alfa Aesar, and Tokyo Chemical Industries) or synthesized as described below and used as test substrates, inhibitors, and metal salts. Nitriles were prepared from their corresponding aldehydes by way of bisulfite adducts according to Young et al.[23].

[3] = target: T1, ChuaMOX (mandelonitrile oxidase); type: binding

T1 sequence (A0A173MZJ8 entry or part of it): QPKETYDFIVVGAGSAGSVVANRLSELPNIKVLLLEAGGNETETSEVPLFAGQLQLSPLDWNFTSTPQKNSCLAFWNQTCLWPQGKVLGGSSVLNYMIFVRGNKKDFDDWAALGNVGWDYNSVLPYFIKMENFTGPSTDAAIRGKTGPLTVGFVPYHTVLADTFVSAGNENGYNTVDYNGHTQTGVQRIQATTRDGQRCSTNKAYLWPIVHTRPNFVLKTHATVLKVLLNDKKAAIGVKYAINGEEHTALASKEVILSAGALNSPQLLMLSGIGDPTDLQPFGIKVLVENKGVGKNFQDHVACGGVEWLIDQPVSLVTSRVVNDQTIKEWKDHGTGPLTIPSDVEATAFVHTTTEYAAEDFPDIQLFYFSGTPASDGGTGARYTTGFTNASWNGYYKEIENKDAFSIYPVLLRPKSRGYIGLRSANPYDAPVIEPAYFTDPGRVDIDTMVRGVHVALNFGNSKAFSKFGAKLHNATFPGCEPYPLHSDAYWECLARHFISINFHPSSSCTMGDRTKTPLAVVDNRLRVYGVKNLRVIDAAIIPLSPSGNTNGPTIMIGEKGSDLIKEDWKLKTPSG

Row | Structure (SMILES) | remaining activity at 1000 µM [2] [%] | further results
1 | N#CC(O)c1ccccc1 (racemic) [racemic mandelonitrile] | – | Km [1]: 2100 µM
2 | c1cnc2c(c1)ccc1cccnc12 [1,10-Phenanthroline] | 84.1 | –
3 | c1ccc(-c2ccccn2)nc1 [2,2'-Bipyridyl] | 87.3 | –
4 | Oc1cccc2cccnc12 [8-Hydroxyquinoline] | – | % of control remaining ([2]; pH 5, standard assay, 1000 µM, inhibitor): 56.0%
5 | O=C(O)CI [Iodoacetic acid] | 71.4 | –
6 | CC(C)NNC(=O)c1ccncc1 [Iproniazid] | 80 | –
7 | NNC(=O)c1ccncc1 [Isoniazid] | 88 | –
8 | CCN1C(=O)C=CC1=O [N-Ethylmaleimide] | 96.8 | –
9 | C#CCN(C)Cc1ccccc1 [Pargyline] | 100 | –
10 | NNC(N)=O [Semicarbazide hydrochloride] | 92 | –
11 | Cc1cc2nc3c(=O)[nH]c(=O)nc-3n(C[C@H](O)[C@H](O)[C@H](O)COP(=O)(O)OP(=O)(O)OC[C@H]3O[C@@H](n4cnc5c(N)ncnc54)[C@H](O)[C@@H]3O)c2cc1C [flavin adenine dinucleotide] | – | thin layer chromatography of the prosthetic group; UV-visible spectrum of purifi [3]: Thin layer chromatography (TLC) identified the prosthetic group as flavin adenine dinucleotide (FAD)
